Results published in patent publication US20240269106A1, “SMALL MOLECULE MODULATOR TARGETING A RARE HISTONE MODIFICATION REGULATING ADIPOGENESIS AND PHARMACEUTICAL FORMULATION THEREOF” (COUNCIL OF SCIENTIFIC AND INDUSTRIAL RESEARCH AN INDIAN …, priority 2021, published 2024).

How the values were obtained:
[1] = system: genes associated with adipogenesis; assay: RT-PCR of adipogenesis related genes in 3T3L1; assay type: cell-based; settings: 3T3L1, RT-PCR
Protocol: Total RNA was isolated from the treated 3T3L1 cells by phenol-chloroform method. The isolated RNA samples were treated with 2 units/μL DNase I to remove any residual DNA followed by overnight ethanol precipitation at −80° C. RNA integrity was checked in 1% agarose gel. 2 μg RNA was used for cDNA synthesis using oligo dT primers. RT-PCR was done using primers of adipogenesis related genes followed by detection with SYBR Green.
RT-PCR analysis was performed to show downregulation of genes associated with adipogenesis by compound of Formula I (FIG. 5). Error bars denote mean+/−SD of three biological replicates, one-way ANOVA with Dunnett's multiple comparison; * P<0.05, ** P<0.01, *** P<0.001, ns: not significant.

[2] = system: genetically obese db/db mice; assay: Body weight gain of genetically obese db/db mice; assay type: in vivo; settings: 50 mg/kg oral gavage
Protocol: Male db+/− and genetically obese db/db mice (8 weeks old) were obtained and acclimatized for 1 week prior to experiments. Mice were maintained on a 12-hour light/dark cycle at 22+/−3° C. and a relative humidity of 55% and given ad libitum access to food and water.
The age-matched db+/− and db/db mice were maintained on a standard laboratory pelleted diet and water. db/db mice were oral gavaged (50 mg/kg) with LTK14A in 0.5% carboxymethyl cellulose, equal volume of the vehicle was orally gavaged to control db/db mice for a total period of 30 days. db+/− animals were kept as untreated normal control group. The body weights and feed intake was recorded every week throughout the experimental period. The lean and fat mass of the mice were determined using Echo MRI in live mice on day 15th and day 30th.
Trend of weight gaining after 30 days of genetically obese leptin receptor homozygous mutant mice with compound of Formula I was plotted against that of mutant mice treated with vehicle control and also heterozygous mutant mice (FIG. 10)(panel i). Average weight gain, average fat mass and average lean mass of the mice from the three groups are represented in bar p graphs (panel ii, iii and iv respectively); n=4 in each group:one-way ANOVA with Dunnett's multiple comparison; * P<0.05, ** P<0.01, *** P<0.001, ns: not significant.

[3] = system: histone acetylation and butyrylation in 3T3L1 cells; assay: Immunoblotting of histone modification status in 3T3L1; assay type: cell-based; settings: 3T3L1 induced to undergo adipogenesis
Protocol: Histones were acid extracted from both undifferentiated and differentiated 3T3L1 for comparison of acetylation and butyrylation levels. For the acid extraction, 3T3L1 cells were washed with ice-cold PBS (supplemented with 5 mm NaBu) and then resuspended in Triton extraction buffer (PBS containing 0.5% Triton X-100 (v/v) and 2 mM PMSF). The cells were allowed to lyse on ice for 10 minutes, spun down, washed with PBS and the process was repeated another time. Then the proteins were acid extracted with 0.2 N HCl for two hours on ice. The debris was spun down and then histones were precipitated by incubating the supernatant with 33% Trichloroacetic acid at 4° C. for 30 minutes. The histones were then pelleted down and then given two washes with acetone. The pellet was allowed to air-dry for 10 minutes and then resuspended with 50 mm Tris-Cl, pH 7.4.
The histones were then run in 15% SDS-PAGE, transferred onto PVDF membrane, blocked with 5% skimmed milk solution to prevent non-specific antibody binding, and finally probed with antibodies against acetylation and butyrylation marks.
Acid extraction of histones was performed from 3T3L1 cells that had been induced to undergo adipogenesis in the absence of any inhibitor (No Inhibitor), in presence of DMSO (solvent control) and in presence of compound of Formula I. The extraction protocol was the same as that described in Example 7.
Histone acetylation levels in 3T3L1 cells that were treated with compound of Formula I were compared with that in DMSO treated and untreated conditions by immunoblotting with antibodies against acetylated histones H3K18, H3K9 and H4K12 (FIG. 7). Histones H3 and H4 were used as loading controls (panel i). Under similar conditions histone butyrylation levels were compared by immunoblotting using antibodies against butyrylated histone H3K23, H4K5 and pan-butyryl lysine (panel ii).

[4] = system: genetically obese db/db mice; assay: Liver and adipose tissue of genetically obese db/db mice; assay type: in vivo
Description: After the treatment of the mice with compound of Formula I for one month, the mice were sacrificed and their liver and epididymal fat pads were harvested. The organs were individually weighed and then processed for morphology study by hematoxylin and eosin staining.
Average weights of liver (i) and adipose tissue (ii) of the mice of the three different groups are represented by bar graphs (FIG. 11); n=4 in each group:one-way ANOVA with Dunnett's multiple comparison; * P<0.05, ** P<0.01, *** P<0.001, ns: not significant. Representative images of morphology of adipose tissue (iii) and liver (iv) from the mice of the three groups, as studied by hematoxylin and eosin staining.

COc1ccc(C(=O)C2=C3OC(C)(C)[C@@H](CC=C(C)C)C[C@@]34C[C@@H](CC=C(C)C)C(C)(C)[C@@](CC=C(C)C)(C2=O)C4=O)cc1OC [Compound X]
expression of genes associated with adipogenesis [1]: downregulation | effect on fat mass compared to lean mass (Echo MRI) [2]: greater effect on fat mass | body weight ([2]; 30 days): reduction in body weight | H3K23 Bu mark [3]: showed inhibition | H4K5 Bu mark [3]: showed inhibition | histone acetylation (H3K18, H3K9, H4K12) [3]: not found to be affected | liver and epididymal fat pad weights ([4]; between db/db vehicle and db+/-): intermediate weights | symptoms of liver steatosis and adipose tissue hypertrophy ([4]; one month treatment): significantly reduced
